Reference: patent publication US20230087825A1, “SMARCA DEGRADERS AND USES THEREOF” (Kymera Therapeutics, Inc., priority 2019, published 2023)

Target: T1, SMARCA2 (Homo sapiens, UniProt P51531)
T1 construct: host or cells: NCI-H1299
Experiment: MSD SMARCA2 degradation in NCI-H1299 cell line
Type: cell-based
Details: NCI-H1299 cells; percentage of SMARCA2 degradation after 24 hours
Experimental: Example 12. MSD SMARCA2 Degration in NCI-H1299 Cell Line
Cell Culture: Cells were cultured in exponential growth phase.
Compound Preparation and Treatment: NCI-H1299 cells were seeded into the 96-well plate at 4.0*10^4 cells per 100 ul per well. Incubate the plate in the incubator overnight. The next day, compounds were diluted to designed stock concentration by TECAN, then perform a 3 fold, 9-point dilution via transferring 15 uL compound into 30 μL DMSO using Apricot. 200 nL diluted compound from compound source plate were transferred into the 96-intermediate plate as designated by using Echo550, followed with 100 ul culture medium to make the 2× compound solution. Cell plate were changed with 80 ul of fresh culture medium and 80 ul of 2× compound solution was added into the well to achieve the final designed concentration. Cell plate was then shaken at 720 rpm for 5 min and incubated for 24 hours in the incubator.
Sample Preperation: Media was aspirated from the cultures and the plate was washed with PBS twice. […]
MSD Procedure: The MSD plate was coated with 40 ul cell lysate and incubated at 4° C. overnight. […] MSD plate was washed 3 times with 150 ul 1×TBST per well and 2× MSD reading buffer was added, 150 ul per well, and diluted from 4× with water. MSD instrument was then read.
Data Analysis: The percentage of relative level of SMARCA2 level was calculated following equation below. […]

T1 sequence (P51531 whole entry): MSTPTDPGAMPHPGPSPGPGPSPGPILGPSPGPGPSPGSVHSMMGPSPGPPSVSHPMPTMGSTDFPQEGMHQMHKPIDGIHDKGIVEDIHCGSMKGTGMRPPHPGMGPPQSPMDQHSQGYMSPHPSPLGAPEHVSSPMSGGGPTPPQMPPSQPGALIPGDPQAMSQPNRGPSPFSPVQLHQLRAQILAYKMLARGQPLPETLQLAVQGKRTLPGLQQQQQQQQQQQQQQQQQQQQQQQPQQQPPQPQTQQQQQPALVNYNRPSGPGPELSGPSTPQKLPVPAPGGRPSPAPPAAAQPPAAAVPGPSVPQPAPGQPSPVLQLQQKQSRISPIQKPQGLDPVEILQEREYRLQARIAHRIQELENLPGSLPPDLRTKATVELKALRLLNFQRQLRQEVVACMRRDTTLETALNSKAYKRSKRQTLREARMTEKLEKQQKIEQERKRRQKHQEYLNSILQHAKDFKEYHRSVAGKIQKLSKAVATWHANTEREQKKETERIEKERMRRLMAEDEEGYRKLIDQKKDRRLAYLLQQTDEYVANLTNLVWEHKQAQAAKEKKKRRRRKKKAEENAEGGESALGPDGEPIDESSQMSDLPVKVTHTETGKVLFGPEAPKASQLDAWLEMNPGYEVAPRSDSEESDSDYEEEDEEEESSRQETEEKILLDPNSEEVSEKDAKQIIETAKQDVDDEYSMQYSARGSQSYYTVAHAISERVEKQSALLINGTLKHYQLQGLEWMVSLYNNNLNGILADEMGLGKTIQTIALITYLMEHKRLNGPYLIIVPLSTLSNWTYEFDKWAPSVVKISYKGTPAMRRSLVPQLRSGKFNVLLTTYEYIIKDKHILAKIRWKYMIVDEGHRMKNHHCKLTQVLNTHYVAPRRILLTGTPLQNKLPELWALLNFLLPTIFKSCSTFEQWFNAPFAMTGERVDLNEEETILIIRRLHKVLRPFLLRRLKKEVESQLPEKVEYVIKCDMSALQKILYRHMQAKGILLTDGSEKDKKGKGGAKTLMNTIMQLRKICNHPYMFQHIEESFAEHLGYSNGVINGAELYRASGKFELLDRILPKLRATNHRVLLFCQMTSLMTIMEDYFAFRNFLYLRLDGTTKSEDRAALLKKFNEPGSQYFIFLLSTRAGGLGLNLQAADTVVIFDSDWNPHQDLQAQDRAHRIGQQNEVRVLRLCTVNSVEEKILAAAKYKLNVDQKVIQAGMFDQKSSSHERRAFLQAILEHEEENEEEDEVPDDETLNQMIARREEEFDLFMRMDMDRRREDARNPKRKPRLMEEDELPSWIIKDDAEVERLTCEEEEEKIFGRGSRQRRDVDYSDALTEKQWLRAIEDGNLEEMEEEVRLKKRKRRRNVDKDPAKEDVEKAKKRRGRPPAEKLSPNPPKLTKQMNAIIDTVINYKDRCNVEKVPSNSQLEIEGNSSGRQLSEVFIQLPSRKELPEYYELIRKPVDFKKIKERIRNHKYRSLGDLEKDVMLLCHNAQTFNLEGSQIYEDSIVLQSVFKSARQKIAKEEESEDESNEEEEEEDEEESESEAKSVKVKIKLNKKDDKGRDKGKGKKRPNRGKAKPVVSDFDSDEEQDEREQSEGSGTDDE

| SMILES | Dmax |
| --- | --- |
| Nc1nnc(-c2ccccc2O)cc1-c1ccc(CN2CCN(CCCCCc3cccc4c3c3ccccc3n4C3CCC(=O)NC3=O)CC2)cc1 (centres unmarked) [I-7] | 70 to 90% |
| Nc1nnc(-c2ccccc2O)cc1-c1ccc(CN2CCN(CCCCOCCCc3ccc4c(c3)c3ccccc3n4C3CCC(=O)NC3=O)CC2)cc1 (centres unmarked) [I-10] | 50 to 70% |
